Measurements reported in patent US8895585B2, “Nicotinamide derivative or salt thereof” (FUJIFILM Corporation, priority 2010, dated 2014).

What follows are molecules tested against T1, glutathione S-transferase (GST)-fused full-length human Syk protein (Homo sapiens, UniProt P43405) (assay: Syk enzyme assay). Conditions: Syk enzyme assay, Test Example 1; read-out: IC50 of Syk-inhibitory activity.
T1 construct: (GST)-fused full-length human Syk protein; GST (glutathione S-transferase); purchased Carna Biosciences
Type: biochemical
Method: A glutathione S-transferase (GST)-fused full-length human Syk protein (Carna Biosciences), which had been generated using a Baculovirus expression system, was used in the Syk enzyme assay.
15 μl of a reaction solution (1.2 ng Syk, 20 mM HEPES, 10 mM MgCl2, 50 mM NaCl, 2 mM DTT, 0.05% BSA, pH 7.0) containing a Syk protein and a predetermined concentration of a test compound was shaken for 2 minutes, and it was then left at rest at room temperature for 13 minutes. Thereafter, 5 μl of Biotin-EDPDYEWPSA-NH2 (final concentration: 0.4 μM) serving as a substrate peptide and 5 μl of ATP (final concentration: 27 μM) were added to the reaction solution, and the obtained mixture was then shaken for 2 minutes. The reaction solution was further left at rest at room temperature for 40 minutes, so as to carry out an enzyme reaction.
Thereafter, 50 μl of a reaction termination solution [5 μg/ml Streptavidin, 0.18 μg/ml PT66-K, 30 mM HEPES (pH 7.0), 150 mM KF, 75 mM EDTA, 0.15% BSA, 0.075% Tween20], which contained Streptavidin-Xlent (Cisbio) and Mab PT66-K (Cisbio), was added to the reaction solution to terminate the enzyme reaction. At the same time, the reaction solution was left at rest at room temperature for 1 hour, so as to carry out an antigen-antibody reaction. Thereafter, using EnVision (PerkinElmer), the time-resolved fluorescence was measured at 615 nm and 665 nm, so that the phosphorylation of the substrate peptide was measured.
In addition, the following are standards for evaluating IC50 of Syk-inhibitory activity used in Table 21. • A: Up to 10 nM • B: 10 to 50 nM • C: 50 to 100 nM • D: 100 to 1000 nM The set of numbers (XYZ-xyz) given in each Example number column indicates the corresponding Example number (Example XYZ-xyz) in Table 21.

Row | Compound | IC50
1 | NC(=O)c1cc(F)c(N[C@@H]2CCCC[C@@H]2N)nc1Nc1ccc2c(cnn2CC2CC2)c1 (relative stereo) [Example 004-090, 6-(cis-2-aminocyclohexylamino)-2-((1-(cyclopropylmethyl)-1H-indazol-5-yl)amino)-5-fluoronicotinamide] | 10 to 50 nM
2 | NC(=O)c1cc(F)c(N[C@@H]2CCCC[C@@H]2N)nc1Nc1cncc(C(F)(F)F)c1 (relative stereo) [Example 004-098, 6-(cis-2-aminocyclohexylamino)-5-fluoro-2-((5-(trifluoromethyl)pyridin-3-yl)amino)-nicotinamide] | 10 to 50 nM
3 | Cc1ccccc1-c1cncc(Nc2nc(N[C@@H]3CCCC[C@@H]3N)c(F)cc2C(N)=O)c1 (relative stereo) [Example 004-101, 6-(cis-2-aminocyclohexylamino)-5-fluoro-2-((5-(2-methylphenyl)pyridin-3-yl)amino)-nicotinamide] | 10 to 50 nM
4 | NC(=O)c1cc(F)c(N[C@@H]2CCCC[C@@H]2N)nc1Nc1ccc(C(F)(F)F)nc1 (relative stereo) [Example 004-102, 6-(cis-2-aminocyclohexylamino)-5-fluoro-2-((6-(trifluoromethyl)pyridin-3-yl)amino)-nicotinamide] | 50 to 100 nM
5 | NC(=O)c1cc(F)c(N[C@@H]2CCCC[C@@H]2N)nc1Nc1cncc(N2CCCCC2=O)c1 (relative stereo) [Example 004-108, 6-(cis-2-aminocyclohexylamino)-5-fluoro-2-((5-(2-oxopiperidine-1-yl)pyridin-3-yl)amino)-nicotinamide] | 100 to 1000 nM
6 | NC(=O)c1cc(F)c(N[C@@H]2CCCC[C@@H]2N)nc1Nc1cnc2c(O)cccc2c1 (relative stereo) [Example 004-124, 6-(cis-2-aminocyclohexylamino)-5-fluoro-2-((8-hydroxyquinolin-3-yl)amino)nicotinamide] | < 10 nM
7 | NC(=O)c1cc(F)c(N[C@@H]2CCCC[C@@H]2N)nc1Nc1ccc2nccn2c1 (relative stereo) [Example 004-130, 6-(cis-2-aminocyclohexylamino)-5-fluoro-2-((imidazo[1,2-a]pyridin-6-yl)amino)-nicotinamide] | 100 to 1000 nM
8 | NC(=O)c1cc(F)c(N[C@@H]2CCCC[C@@H]2N)nc1Nc1ccn2ccnc2c1 (relative stereo) [Example 004-131, 6-(cis-2-aminocyclohexylamino)-5-fluoro-2-((imidazo[1,2-a]pyridin-7-yl)amino)-nicotinamide] | 10 to 50 nM
9 | NC(=O)c1cc(F)c(N[C@@H]2CCCC[C@@H]2N)nc1Nc1cnc2c(F)cccc2c1 (relative stereo) [Example 004-135, 6-(cis-2-aminocyclohexylamino)-5-fluoro-2-((8-fluoroquinolin-3-yl)amino)nicotinamide] | 10 to 50 nM
10 | CNc1cc(Nc2nc(N[C@@H]3CCCC[C@@H]3N)c(F)cc2C(N)=O)cc2cccnc12 (relative stereo) [Example 004-136, 6-(cis-2-aminocyclohexylamino)-5-fluoro-2-((8-(methylamino)quinolin-6-yl)amino)-nicotinamide] | < 10 nM
11 | COCCNc1cc(Nc2nc(N[C@@H]3CCCC[C@@H]3N)c(F)cc2C(N)=O)cc2cccnc12 (relative stereo) [Example 004-137, 6-(cis-2-aminocyclohexylamino)-5-fluoro-2-((8-(2-methoxyethylamino)quinolin-6-yl)-amino)nicotinamide] | < 10 nM
12 | COc1cc(Nc2nc(N[C@@H]3CCCC[C@@H]3N)c(F)cc2C(N)=O)cc2cccnc12 (relative stereo) [Example 004-138, 6-(cis-2-aminocyclohexylamino)-5-fluoro-2-((8-methoxyquinolin-6-yl)amino)nicotinamide] | < 10 nM
13 | COCCOc1cc(Nc2nc(N[C@@H]3CCCC[C@@H]3N)c(F)cc2C(N)=O)cc2cccnc12 (relative stereo) [Example 004-139, 6-(cis-2-aminocyclohexylamino)-5-fluoro-2-((8-(2-methoxyethoxy)quinolin-6-yl)amino)-nicotinamide] | < 10 nM
14 | NC(=O)c1cc(F)c(N[C@@H]2CCCC[C@@H]2N)nc1Nc1cc(OCc2ccccc2)c2ncccc2c1 (relative stereo) [Example 004-140, 6-(cis-2-aminocyclohexylamino)-2-((8-(benzyloxy)quinolin-6-yl)amino)-5-fluoronicotinamide] | 10 to 50 nM
15 | COC(=O)c1cc(Nc2nc(N[C@@H]3CCCC[C@@H]3N)c(F)cc2C(N)=O)cnc1N (relative stereo) [Example 004-142, methyl 2-amino-5-((6-(cis-2-aminocyclohexylamino)-3-carbamoyl-5-fluoropyridin-2-yl)amino)nicotinate] | 10 to 50 nM
16 | NC(=O)c1cc(F)c(N[C@@H]2CCCC[C@@H]2N)nc1Nc1cncc(-c2cccc(F)c2)c1 (relative stereo) [Example 004-144, 6-(cis-2-aminocyclohexylamino)-5-fluoro-2-((5-(3-fluorophenyl)pyridin-3-yl)amino)-nicotinamide] | < 10 nM
17 | NC(=O)c1cc(F)c(N[C@@H]2CCCC[C@@H]2N)nc1Nc1cncc(-c2ccc(F)cc2)c1 (relative stereo) [Example 004-145, 6-(cis-2-aminocyclohexylamino)-5-fluoro-2-((5-(4-fluorophenyl)pyridin-3-yl)amino)-nicotinamide] | < 10 nM

More lines, now with the values ahead:

Row | IC50 | Compound
18 | < 10 nM | COCCn1ccc2c(Nc3nc(N[C@@H]4CCCC[C@@H]4N)c(F)cc3C(N)=O)cc(F)cc21 (relative stereo) [Example 004-084, 6-(cis-2-aminocyclohexylamino)-5-fluoro-2-((6-fluoro-1-(2-methoxyethyl)-1H-indol-4-yl)amino)nicotinamide]
19 | < 10 nM | NC(=O)c1cc(F)c(N[C@@H]2CCCC[C@@H]2N)nc1Nc1cc(C(F)(F)F)cc2[nH]ccc12 (relative stereo) [Example 004-085, 6-(cis-2-aminocyclohexylamino)-5-fluoro-2-((6-(trifluoromethyl)-1H-indol-4-yl)amino)-nicotinamide]
20 | < 10 nM | Cc1cccc(-c2cncc(Nc3nc(N[C@@H]4CCCC[C@@H]4N)c(F)cc3C(N)=O)c2)c1 (relative stereo) [Example 004-099, 6-(cis-2-aminocyclohexylamino)-5-fluoro-2-((5-(3-methylphenyl)pyridin-3-yl)amino)-nicotinamide]
21 | < 10 nM | Cc1ccc(-c2cncc(Nc3nc(N[C@@H]4CCCC[C@@H]4N)c(F)cc3C(N)=O)c2)cc1 (relative stereo) [Example 004-100, 6-(cis-2-aminocyclohexylamino)-5-fluoro-2-((5-(4-methylphenyl)pyridin-3-yl)amino)-nicotinamide]
22 | < 10 nM | NC(=O)c1cc(F)c(N[C@@H]2CCCC[C@@H]2N)nc1Nc1cncc(-c2cccc(OCCN3CCOCC3)c2)c1 (relative stereo) [Example 004-110, 6-(cis-2-aminocyclohexylamino)-5-fluoro-2-((5-(3-(2-morpholinoethoxy)phenyl)pyridin-3-yl)amino)nicotinamide]
23 | < 10 nM | COCCOc1ccc(-c2cncc(Nc3nc(N[C@@H]4CCCC[C@@H]4N)c(F)cc3C(N)=O)c2)cc1 (relative stereo) [Example 004-111, 6-(cis-2-aminocyclohexylamino)-5-fluoro-2-((5-(4-(2-methoxyethoxy)phenyl)pyridin-3-yl)-amino)nicotinamide]
24 | < 10 nM | NC(=O)c1cc(F)c(N[C@@H]2CCCC[C@@H]2N)nc1Nc1cncc(-c2ccc(OCCN3CCOCC3)cc2)c1 (relative stereo) [Example 004-112, 6-(cis-2-aminocyclohexylamino)-5-fluoro-2-((5-(4-(2-morpholinoethoxy)phenyl)pyridin-3-yl)amino)nicotinamide]
25 | < 10 nM | CNc1cccc2cc(Nc3nc(N[C@@H]4CCCC[C@@H]4N)c(F)cc3C(N)=O)cnc12 (relative stereo) [Example 004-116, 6-(cis-2-aminocyclohexylamino)-5-fluoro-2-((8-(methylamino)quinolin-3-yl)amino)-nicotinamide]
26 | < 10 nM | Cn1ccc(-c2cncc(Nc3nc(N[C@@H]4CCCC[C@@H]4N)c(F)cc3C(N)=O)c2)c1 (relative stereo) [Example 004-119, 6-(cis-2-aminocyclohexylamino)-5-fluoro-2-((5-(1-methyl-1H-pyrrol-3-yl)pyridin-3-yl)-amino)nicotinamide]
27 | < 10 nM | COCCOc1cccc2cc(Nc3nc(N[C@@H]4CCCC[C@@H]4N)c(F)cc3C(N)=O)cnc12 (relative stereo) [Example 004-121, 6-(cis-2-aminocyclohexylamino)-5-fluoro-2-((8-(2-methoxyethoxy)quinolin-3-yl)amino)-nicotinamide]
